Where two headings read alike, the source gives them in different places.
Columns and labels:
[1] = molecular target: T1, CAXIII (Homo sapiens, UniProt Q8N1Q1); settings: 37 °C; calculated (Equation 5);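 further: recombinant human CAXIII melting temperature tracked by ANS fluorescence in thermal shift assay, Tm fitted against ligand concentration, intrinsic value corrects Kd for deprotonated sulfonamide and Zn-bound water fractions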
[2] = molecular target: T2, CAXII (Homo sapiens, UniProt O43570); assay: biochemical; type: binding; settings: for Intrinsic Gibbs energy change (ΔGint), CAXII: 37 °C, calculated (Equation 5); for Kd: FTSA, pH 7.0, 37 °C, read-out: Observed Dissociation Constant (Kd_obs), CAXII
T2 construct: made in house; host or cells: E. coli
T2 sequence (O43570 25-354): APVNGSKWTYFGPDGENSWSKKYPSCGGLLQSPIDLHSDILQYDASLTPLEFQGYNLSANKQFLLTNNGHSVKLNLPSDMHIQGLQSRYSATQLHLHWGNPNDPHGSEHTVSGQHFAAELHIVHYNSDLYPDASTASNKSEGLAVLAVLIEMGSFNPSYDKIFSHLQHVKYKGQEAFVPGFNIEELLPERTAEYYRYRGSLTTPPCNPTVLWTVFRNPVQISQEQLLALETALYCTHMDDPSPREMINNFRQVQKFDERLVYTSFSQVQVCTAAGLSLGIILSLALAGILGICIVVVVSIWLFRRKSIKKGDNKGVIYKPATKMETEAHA
Method: (§1) Human CA isozymes were expressed in E. coli (CAI, II, III, IV, VA, VB, VII, XII, XIII, XIV) or mammalian cells (CAVI and CAIX), chromatographically purified following the published protocols [47], and stored at −80 °C. The protein concentration was determined by UV absorption at 280 nm using Beer–Lambert law.
(§2) The QIAGEN Rotor-Gene Q was used to carry out the experiments, with a blue channel used for excitation (365 nm) and detection (460 nm). FTSA in this case relies on an extrinsic probe, 8-anilino-1-naphthalenesulfonate (ANS), to detect the fluorescence increase during protein denaturation, from which protein melting temperature (Tm) can be determined. […] The observed affinity of ligands for CAs was determined by plotting the Tm as a function of ligand concentration and then fitting a curve as described previously [48]. […] Samples were heated from 25 °C to 99 °C at the speed of 1 °C/min.
(§3) The intrinsic thermodynamic parameters were calculated as described in [40]. The intrinsic reaction of inhibitor binding to CA is shown in Equation (1).
(§4) When calculating Kd_int values, these protein and ligand fractions from Equation (1) have to be accounted for (Equations (2) and (3)). The intrinsic dissociation constant is calculated by multiplying Kd_obs value by the corresponding fractions of protein and ligand (Equation (4)). (2) fRSO2NH^−=10^pH−pKa_RSO2NH2/1+10^pH−pKa_RSO2NH2 (3) fCAZnH2O=1−10^pH−pKa_CAZnH2O/1+10^pH−pKa_CAZnH2O (4) Kd_int=Kd_obs×fRSO2NH^−×fCAZnH2O (5) ΔGint0=RTlnKd_int
(§5) The intrinsic standard Gibbs energy changes upon binding were calculated using Equation (5). Here, R—universal ideal gas constant (8.3144 J/mol·K), T—absolute temperature (310.15 K).

[3] = molecular target: T3, CAIX (Homo sapiens, UniProt Q16790); assay: biochemical; type: binding; settings: for Intrinsic Gibbs energy change (ΔGint), CAIX: 37 °C, calculated (Equation 5); for Kd: FTSA, pH 7.0, 37 °C, read-out: Observed Dissociation Constant (Kd_obs), CAIX
T3 construct: made in house

[4] = molecular target: T4, CAVA (Homo sapiens, UniProt P35218); assay: Fluorescent thermal shift assay (FTSA), CAVA; type: binding; settings: FTSA, pH 7.0, 37 °C; read-out: Observed Dissociation Constant (Kd_obs), CAVA
T4 construct: made in house; host or cells: E. coli
T4 sequence (P35218 39-305): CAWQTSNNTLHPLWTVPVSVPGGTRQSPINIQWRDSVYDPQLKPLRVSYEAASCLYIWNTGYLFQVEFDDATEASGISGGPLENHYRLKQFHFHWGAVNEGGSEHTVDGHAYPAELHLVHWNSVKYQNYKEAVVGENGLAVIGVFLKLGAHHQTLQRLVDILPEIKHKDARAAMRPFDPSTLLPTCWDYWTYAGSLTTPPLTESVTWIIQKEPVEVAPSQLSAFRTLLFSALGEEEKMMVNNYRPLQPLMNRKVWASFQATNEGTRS

[5] = molecular target: T5, CAXIV (Homo sapiens, UniProt Q9ULX7); assay: Fluorescent thermal shift assay (FTSA), CAXIV; type: binding; settings: for Intrinsic Gibbs energy change (ΔGint), CAXIV: 37 °C, calculated (Equation 5); for Kd: FTSA, pH 7.0, 37 °C, read-out: Observed Dissociation Constant (Kd_obs), CAXIV;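 on all read-outs here: recombinant human CA XIV from E. coli, ANS-based thermal shift: Kd_obs fitted from melting temperature versus ligand concentration, ΔGint from Kd_obs corrected for deprotonated sulfonamide and Zn-water fractions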
T5 construct: made in house; host or cells: E. coli
T5 sequence (Q9ULX7 16-337): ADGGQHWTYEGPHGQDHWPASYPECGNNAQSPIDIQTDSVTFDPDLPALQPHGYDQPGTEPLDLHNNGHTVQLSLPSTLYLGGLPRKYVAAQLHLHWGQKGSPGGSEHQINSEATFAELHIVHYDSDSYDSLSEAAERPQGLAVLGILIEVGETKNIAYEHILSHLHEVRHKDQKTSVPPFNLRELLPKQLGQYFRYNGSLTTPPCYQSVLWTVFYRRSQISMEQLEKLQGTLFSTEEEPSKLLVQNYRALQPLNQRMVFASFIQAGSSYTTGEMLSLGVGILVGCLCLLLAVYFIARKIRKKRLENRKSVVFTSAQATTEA
Method: as §1, §2
(§6) The intrinsic thermodynamic parameters were calculated as described in [40]. The intrinsic reaction of inhibitor binding to CA is shown in Equation (1). […] It is known that CA proteins bind sulfonamides only when water molecules are coordinated to the Zn(II) ion, and sulfonamides only bind to CA proteins when their amino group is deprotonated (confirmed by neutron crystallography [53, 54, 55]):(1) CA Zn^II−H2O+RSO2NH^−⇄ CA Zn^II−NH SO2R+H2O
as §4, §5

[6] = molecular target: T6, CAIV (Homo sapiens, UniProt P22748); assay: Fluorescent thermal shift assay (FTSA), CAIV; type: binding; settings: for Intrinsic Gibbs energy change (ΔGint), CAIV: 37 °C, calculated (Equation 5); for Kd: FTSA, pH 7.0, 37 °C, read-out: Observed Dissociation Constant (Kd_obs), CAIV;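 on all read-outs here: recombinant human enzyme, thermal denaturation followed by ANS fluorescence, melting temperature versus ligand concentration fitted for Kd_obs, intrinsic value corrected for deprotonated sulfonamide and Zn-bound water fractions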
T6 construct: made in house; host or cells: E. coli
T6 sequence (P22748 19-312): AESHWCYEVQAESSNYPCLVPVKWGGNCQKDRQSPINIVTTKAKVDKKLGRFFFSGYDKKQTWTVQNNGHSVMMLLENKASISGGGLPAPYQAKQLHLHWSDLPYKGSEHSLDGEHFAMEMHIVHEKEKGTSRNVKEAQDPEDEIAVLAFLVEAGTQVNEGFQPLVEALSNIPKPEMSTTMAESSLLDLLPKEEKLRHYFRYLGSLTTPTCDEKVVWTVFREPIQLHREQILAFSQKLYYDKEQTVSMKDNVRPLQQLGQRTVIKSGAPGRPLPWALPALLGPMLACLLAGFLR
Method: as §1, §2, §6, §4, §5

[7] = molecular target: T7, CAVII (Homo sapiens, UniProt P43166); assay: Fluorescent thermal shift assay (FTSA), CAVII; type: binding; settings: for Intrinsic Gibbs energy change (ΔGint), CAVII: 37 °C, calculated (Equation 5); for Kd: FTSA, pH 7.0, 37 °C, read-out: Observed Dissociation Constant (Kd_obs), CAVII
T7 construct: made in house; host or cells: E. coli
T7 sequence (P43166 whole entry): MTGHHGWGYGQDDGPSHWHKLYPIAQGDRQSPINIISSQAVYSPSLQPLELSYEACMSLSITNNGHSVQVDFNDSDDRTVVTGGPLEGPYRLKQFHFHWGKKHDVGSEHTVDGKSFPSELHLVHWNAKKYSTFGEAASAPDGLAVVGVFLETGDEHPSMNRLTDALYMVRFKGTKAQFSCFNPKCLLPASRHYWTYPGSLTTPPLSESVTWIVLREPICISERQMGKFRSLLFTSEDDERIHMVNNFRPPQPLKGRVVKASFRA
Method: as §1, §2, §6, §4, §5

[8] = molecular target: T8, CAIII (Homo sapiens, UniProt P07451); assay: Fluorescent thermal shift assay (FTSA), CAIII; type: binding; settings: for Kd: FTSA, pH 7.0, 37 °C, read-out: Observed Dissociation Constant (Kd_obs), CAIII
T8 construct: made in house; host or cells: E. coli
T8 sequence (P07451 whole entry): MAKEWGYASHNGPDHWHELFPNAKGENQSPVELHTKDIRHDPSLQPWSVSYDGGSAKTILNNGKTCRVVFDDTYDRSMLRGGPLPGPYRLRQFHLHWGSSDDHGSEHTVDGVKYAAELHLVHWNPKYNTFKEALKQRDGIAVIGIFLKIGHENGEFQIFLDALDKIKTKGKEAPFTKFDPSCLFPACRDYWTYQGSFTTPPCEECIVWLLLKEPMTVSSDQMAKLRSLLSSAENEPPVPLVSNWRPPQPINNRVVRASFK
Method: as §1, §2, §6, §4, §5

[9] = molecular target: T9, CAVB (Homo sapiens, UniProt Q9Y2D0); assay: Fluorescent thermal shift assay (FTSA), CAVB; type: binding; settings: for Intrinsic Gibbs energy change (ΔGint), CAVB: 37 °C, calculated (Equation 5); for Kd: FTSA, pH 7.0, 37 °C, read-out: Observed Dissociation Constant (Kd_obs), CAVB
T9 construct: made in house; host or cells: E. coli
T9 sequence (Q9Y2D0 34-317): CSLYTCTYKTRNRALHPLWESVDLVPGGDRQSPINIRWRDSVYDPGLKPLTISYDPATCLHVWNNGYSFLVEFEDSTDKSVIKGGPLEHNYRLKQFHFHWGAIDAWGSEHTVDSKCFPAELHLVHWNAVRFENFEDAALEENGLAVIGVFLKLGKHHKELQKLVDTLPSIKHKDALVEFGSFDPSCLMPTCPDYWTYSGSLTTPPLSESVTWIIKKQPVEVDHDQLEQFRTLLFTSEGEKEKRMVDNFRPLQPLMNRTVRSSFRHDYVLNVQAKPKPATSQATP
Method: as §1, §2, §6, §4, §5

[10] = molecular target: T10, CAI (Homo sapiens, UniProt P00915); assay: biochemical; type: binding; settings: for Intrinsic Gibbs energy change (ΔGint), CAI: 37 °C, calculated (Equation 5); for Kd: FTSA, pH 7.0, 37 °C, read-out: Observed Dissociation Constant (Kd_obs), CAI
T10 construct: made in house; host or cells: E. coli
T10 sequence (P00915 whole entry): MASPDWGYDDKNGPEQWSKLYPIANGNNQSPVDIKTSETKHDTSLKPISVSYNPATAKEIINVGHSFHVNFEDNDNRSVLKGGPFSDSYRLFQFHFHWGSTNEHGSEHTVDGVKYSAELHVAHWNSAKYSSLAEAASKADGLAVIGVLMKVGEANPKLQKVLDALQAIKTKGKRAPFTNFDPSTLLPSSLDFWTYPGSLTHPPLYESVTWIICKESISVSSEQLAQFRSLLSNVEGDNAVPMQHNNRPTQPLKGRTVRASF
Method: as §1, §2, §3, §4, §5

[11] = molecular target: T1, CAXIII; assay: biochemical; settings: Observed Dissociation Constant (Kd_obs), FTSA, pH 7.0, 37 °C
[12] = molecular target: T11, CAII (Homo sapiens, UniProt P00918); assay: biochemical; type: binding; settings: for Intrinsic Gibbs energy change (ΔGint), CAII: 37 °C, calculated (Equation 5); for Kd: FTSA, pH 7.0, 37 °C, read-out: Observed Dissociation Constant (Kd_obs), CAII
T11 construct: made in house; host or cells: E. coli

[13] = Determination of compound sulfonamide group pKa (UV-Vis spectra at different pH); type: physicochemical
Method: To calculate the intrinsic thermodynamic parameters of compound binding to CA isozymes, the pKa values of the sulfonamide group and the water molecule bound to the Zn(II) ion at the active site of CA proteins had to be determined. The pKa values for CA isozyme-bound water molecules were taken from, CAI—8.1; CAII—6.9; CAIII—6.5; CAIV—6.6; CAVA—6.7; CAVB—7.0; CAVI—6.0; CAVII—6.8; CAIX—6.6; CAXII—6.8; CAXIII—8.0; CAXIV—6.1. […] The pKa values were calculated as described previously in [28, 52] by normalizing the absorbance, plotting it as a function of pH, then fitting to the Henderson–Hasselbalch equation using the least square method (Figure S105).
Since the pKa values were only able to be measured for compound group 26–36, due to universal buffer pH limitations, intrinsic thermodynamic parameters were not calculated for compounds 2(a,b)–25(a,b), only for compounds 26–36 using experimentally obtained pKa values when possible and using the average pKa value mentioned above for compounds not measured.

[14] = molecular target: T12, CAVI (Homo sapiens, UniProt P23280); assay: Fluorescent thermal shift assay (FTSA), CAVI; type: binding; settings: for Intrinsic Gibbs energy change (ΔGint), CAVI: 37 °C, calculated (Equation 5); for Kd: FTSA, pH 7.0, 37 °C, read-out: Observed Dissociation Constant (Kd_obs), CAVI;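 on all read-outs here: human CAVI expressed in mammalian cells, ANS fluorescence tracked during thermal unfolding, melting temperature fitted against ligand concentration, intrinsic values corrected for deprotonated sulfonamide and Zn-bound water fractions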
T12 construct: made in house
T12 sequence (P23280 21-290 limits assumed): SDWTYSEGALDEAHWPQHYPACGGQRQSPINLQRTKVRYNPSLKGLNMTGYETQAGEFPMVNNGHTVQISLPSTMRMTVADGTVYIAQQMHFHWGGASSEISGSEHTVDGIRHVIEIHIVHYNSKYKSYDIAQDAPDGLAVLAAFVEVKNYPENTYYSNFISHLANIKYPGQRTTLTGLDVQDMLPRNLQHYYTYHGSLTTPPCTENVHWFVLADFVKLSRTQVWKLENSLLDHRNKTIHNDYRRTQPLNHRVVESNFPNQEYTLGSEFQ
Method: as §1, §2, §6, §4, §5

[15] = molecular target: T11, CAII; assay: Isothermal titration calorimetry (ITC), CAII; type: binding; settings: pH 7.0, 37 °C, read-out: Observed Dissociation Constant (Kd_obs), CAII, ITC data in brackets
[16] = molecular target: T11, CAII; settings: FTSA, pH 7.0, 37 °C; taken from previous publication; read-out: Observed Dissociation Constant (Kd_obs), CAII; cited from earlier work
[17] = molecular target: T3, CAIX; settings: FTSA, pH 7.0, 37 °C; taken from previous publication; read-out: Observed Dissociation Constant (Kd_obs), CAIX; cited from earlier work
[18] = molecular target: T10, CAI; settings: FTSA, pH 7.0, 37 °C; taken from previous publication; read-out: Observed Dissociation Constant (Kd_obs), CAI; cited from earlier work
[19] = molecular target: T2, CAXII; settings: FTSA, pH 7.0, 37 °C; taken from previous publication; read-out: Observed Dissociation Constant (Kd_obs), CAXII; cited from earlier work
[20] = molecular target: T9, CAVB; assay: Isothermal titration calorimetry (ITC), CAVB; type: binding; settings: pH 7.0, 37 °C
[21] = universal buffer, spectrophotometric, 37 °C, read-out: Sulfonamide pKa

T1 sequence (Q8N1Q1 whole entry): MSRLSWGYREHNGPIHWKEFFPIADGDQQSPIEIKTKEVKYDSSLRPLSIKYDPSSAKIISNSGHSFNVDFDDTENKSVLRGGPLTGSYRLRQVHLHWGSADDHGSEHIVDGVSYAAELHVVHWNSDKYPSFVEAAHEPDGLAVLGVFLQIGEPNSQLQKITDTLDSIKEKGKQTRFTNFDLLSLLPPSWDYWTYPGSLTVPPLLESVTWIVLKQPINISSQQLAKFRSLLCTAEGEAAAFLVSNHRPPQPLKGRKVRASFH

Row | Structure (SMILES) | Intrinsic Gibbs energy change (ΔGint), CAXIII [1] [kcal/mol] | Intrinsic Gibbs energy change (ΔGint), CAXII [2] [kcal/mol] | Kd [2] [nM] | Intrinsic Gibbs energy change (ΔGint), CAIX [3] [kcal/mol] | Kd [3] [nM] | Kd [4] [nM] | Intrinsic Gibbs energy change (ΔGint), CAXIV [5] [kcal/mol] | Kd [5] [nM] | Intrinsic Gibbs energy change (ΔGint), CAIV [6] [kcal/mol] | Kd [6] [nM] | melting point [°C] | Intrinsic Gibbs energy change (ΔGint), CAVII [7] [kcal/mol] | Kd [7] [nM] | Kd [8] [nM] | Intrinsic Gibbs energy change (ΔGint), CAVB [9] [kcal/mol] | Kd [9] [nM] | Intrinsic Gibbs energy change (ΔGint), CAI [10] [kcal/mol] | Kd [10] [nM] | Kd [11] [nM] | Intrinsic Gibbs energy change (ΔGint), CAII [12] [kcal/mol] | also measured
1 | CCOC(=O)c1sc(N(CCC(=O)NN)c2ccc(S(N)(=O)=O)cc2)nc1C [Compound 33] | -13.1 | -11.5 | 26000 | -14 | 630 | ≥ 200000 | -14.3 | 910 | -13 | 2800 | 206 to 207 | -13.4 | 1100 | ≥ 200000 | -14.7 | 100 | -12.2 | 3100 | 830 | -13.8 | Kd [12]: 500 nM; pKa ([13]; value marked *: average of measured compounds, used for calculation, read-out: Sulfonamide pKa (not determined, average of all measured compounds)): 10.1; Intrinsic Gibbs energy change (ΔGint), CAVI [14]: -12.4 kcal/mol; Kd [14]: 25000 nM
2 | CCOC(=O)c1sc(N(CCC(=O)O)c2ccc(S(N)(=O)=O)cc2)nc1C [Compound 31, 3-((5-(Ethoxycarbonyl)-4-methylthiazol-2-yl)(4-sulfamoylphenyl)amino)propanoic acid] | -13.4 | -12.6 | 3800 | -14.3 | 360 | ≥ 200000 | -13.8 | 2000 | -12.5 | 6700 | 221 to 222 | -13.1 | 1700 | ≥ 200000 | -11.5 | 20000 | -12.5 | 2000 | 450 | -13.5 | Kd [15]: 860 nM; Kd [12]: 910 nM; pKa [13, 21]: 10.1; Intrinsic Gibbs energy change (ΔGint), CAVI [14]: -12.4 kcal/mol; Kd [14]: 24000 nM
3 | Cc1csc(N(CCC(=O)O)c2ccc(S(N)(=O)=O)cc2)n1 [Compound 27, 3-((4-Methylthiazol-2-yl)(4-sulfamoylphenyl)amino)propanoic acid] | -13.5 | -15 | 180 | -16 | 48 | ≥ 200000 | -15.8 | 170 | -13.9 | 1400 | 162 to 163 | -14.7 | 250 | 63000 | -14.1 | 560 | -15 | 67 | 870 | -14.7 | Intrinsic Gibbs energy change (ΔGint), CAIII ([8]; 37 °C, calculated (Equation 5)): -11.6 kcal/mol; Kd [12]: 220 nM; pKa [13, 21]: 10.4; Intrinsic Gibbs energy change (ΔGint), CAVI [14]: -13 kcal/mol; Kd [14]: 18000 nM
4 | NC(=S)N(CCC(=O)O)c1ccc(S(N)(=O)=O)cc1 [Compound 26] | – | – | – | – | – | – | – | – | – | – | – | – | – | – | – | – | – | – | – | – | Kd [16]: 5000 nM; Kd [17]: 10000 nM; Kd [18]: 10000 nM; Kd [19]: 33000 nM
5 | CCOC(=O)c1sc(N(CCC(=O)OC)c2ccc(S(N)(=O)=O)cc2)nc1C [Compound 32, Ethyl 2-((3-Methoxy-3-oxopropyl)(4-sulfamoylphenyl)amino)-4-methylthiazole-5-carboxylate] | -13.1 | -11.7 | 7700 | -14.1 | 190 | ≥ 200000 | -13.8 | 770 | -12.7 | 2000 | 140 to 141 | -14.2 | 130 | ≥ 200000 | -14.9 | 30 | -12.5 | 830 | 330 | -14.6 | ΔHobs, CAVB ([20]; 50 mM sodium phosphate buffer, 100 mM NaCl): -9.6 kcal/mol; Kd ([20]; read-out: Observed Dissociation Constant (Kd_obs), CAVB, ITC data in brackets): 41 nM; Kd [12]: 53 nM; pKa [13, 21]: 9.7; Intrinsic Gibbs energy change (ΔGint), CAVI [14]: -12.4 kcal/mol; Kd [14]: 10000 nM
6 | Cc1csc(N(CCC(=O)NN)c2ccc(S(N)(=O)=O)cc2)n1 [Compound 29, 4-((3-Hydrazineyl-3-oxopropyl)(4-methylthiazol-2-yl)amino)benzenesulfonamide] | -12.9 | -13.9 | 830 | -15.5 | 80 | ≥ 200000 | -15.8 | 130 | -13.7 | 1500 | 167 to 168 | -14 | 670 | ≥ 200000 | -15.2 | 77 | -14.4 | 150 | 1700 | -14.3 | Kd [12]: 380 nM; pKa [13, 21]: 10.3; Intrinsic Gibbs energy change (ΔGint), CAVI [14]: -12.8 kcal/mol; Kd [14]: 20000 nM
7 | Cc1cc(C)n(C(=O)C2CC(=O)N(c3ccc(S(N)(=O)=O)cc3)C2)n1 (stereo not drawn) [Compound 21] | – | – | – | – | – | – | – | – | – | – | – | – | – | – | – | – | – | – | – | – | Kd [16]: 66 nM; Kd [17]: 220 nM; Kd [18]: 250 nM; Kd [19]: 1400 nM

— PMC9033141, “Beta and Gamma Amino Acid-Substituted Benzenesulfonamides as Inhibitors of Human Carbonic Anhydrases” (Pharmaceuticals, 2022)
